Experimental findings from patent US6639107B1, “Cyclopentyl sulfonamide derivatives” (Eli Lilly and Company, priority 1999, dated 2003) are described below.

The melting point is the temperature, or range, at which the solid turns liquid.

For the molecule `CC(C)S(=O)(=O)N[C@H]1CCC[C@@H]1c1ccc(Br)cc1` (racemic) [Example 48, (+,−) Trans Propane-2-sulfonic Acid [2-(4-bromo-phenyl)-cyclopentyl]-amide], the melting point lay in the range of 128 to 130 °C.
